The values that follow come from patent US12404285B2, “KRAS G12D proteolysis targeting chimeras” (PAQ Therapeutics Inc., priority 2022, dated 2025).

Bounds are passed on as bounds.

T1 sequence (P01116 1-188 isoform P01116-2 G12D): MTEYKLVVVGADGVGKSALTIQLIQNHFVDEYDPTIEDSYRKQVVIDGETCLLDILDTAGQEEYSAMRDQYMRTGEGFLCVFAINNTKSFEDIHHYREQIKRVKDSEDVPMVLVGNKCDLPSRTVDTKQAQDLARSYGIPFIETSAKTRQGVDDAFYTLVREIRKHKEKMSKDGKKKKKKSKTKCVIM

This assay has as its target T1, KRAS (G12D)-HiBit in AsPc-1-KRAS (G12D)-HiBit-KI cell (Homo sapiens, UniProt P01116, G12D).
T1 construct: host or cells: AsPc-1-KRAS (G12D)-HiBit-KI cells (knock-in line)
The assay is described as follows: G12D HiBit assay. Type of assay: cell-based. To be noted: 24 hours compound treatment, absolute DC50, read-out: Average PHA DC50. The protocol:
Day 1. Prepared the culture medium for AsPc-1-KRAS (G12D)-HiBit-KI cell (Pharmaron) using RPMI 1640 medium (Gibco, 11875093) with 10% FBS (Gibco, 10099141C) and 1% Penicillin-Streptomycin Liquid (Solarbio, P1400). Cultivated cells in T-75 flasks in a cell culture incubator (Thermo, Model: 371) at 37° C., 5% CO2. Allowed cells to reach approximately 80% confluence before splitting. Rinsed cultivated cells in T-75 flasks with 5 mL PBS (Solarbio, P1020-500). Aspirated off PBS, added 1.5 mL trypsin (Invitrogen, #25300), and incubated at 37° C. for approximately 5 minutes or until the cells detached. Inactivated trypsin by adding excessive serum containing medium. Harvested the cells from flask into cell culture medium and counted the cell number. Seeded AsPc-1-KRAS (G12D)-HiBit-KI cell into 384-well plate (Corning, 3570) (cell density: 5×10^3 cells/well in 50 μL medium) in RPMI 1640 medium and incubated overnight at 37° C. and 5% CO2.
Day 2. Test compounds were dissolved at 0.3 mM in DMSO (Solarbio, D8371) as stock solution. Transferred 45 μL of stock solution to a 384-well plate (Labcyte, 001-14555). Performed 3-fold, 10-points dilution via transferring 15 μL compound into 30 μL DMSO by using TECAN liquid handler (TECAN, Freedom EVO200). The compound plates were spin at room temperature at 1,000 RPM for 1 minute (Eppendorf, 5810R). Transferred 50 nL of diluted compounds from compound source plate into the cell plate by Echo (Labcyte, 550) to achieve final concentrations of 300 nM, 100 nM, 33.3 nM, 11.1 nM, 3.7 nM, 1.23 nM, 0.41 nM, 0.14 nM, 0.046 nM and 0.015 nM, then mixed the cell plate on a plate shaker (Yoning, WZ-4) for 15 seconds at 900 rpm. After compound treatment for 24 hours, removed the plate from incubators and equilibrated at room temperature for 15 minutes. Prepared the HiBit reagent (Promega, N3040) by mixing 10 mL of Nano-Glo®-HiBiT Lytic Buffer with 200 μL of Nano-Glo®-HiBiT Lytic Substrate and 100 μL of LgBiT Protein. Added 20 μL of HiBit reagent into each well of the cell plate and spun the plates at room temperature at 1,000 RPM for 1 minute. Then shook the plates at 600 RPM at room temperature for 20 minutes using a plate shaker (Yoning, WZ-4), and read the luminescence by EnVision (PerkinElmer, 2105-0020).
The inhibition activity was calculated using the following formula: HiBit-G12D level (%)=100%×[Luminescence(Sample)/Mean of Luminescence (HC)] where HC (high control) is obtained from cells treated with 0.1% DMSO only.
Absolute DC50 was calculated by fitting the curve using GraphPad Prism v8.0.2 (analyis 263): Y=Bottom+(100−Bottom)/(1+10^(Log AbsoluteIC50−X)*HillSlope+log((100−Bottom)/(50−Bottom)−1)))
The data are reported in Table 3, wherein “+++”=DC50 less than 100 nM, “++”=DC50 greater than or equal to 100 nM and less than 300 nM; “+”=DC50 greater than or equal to 300 nM.
Background: With HiBiT, luminescence reflects the tagged protein that the partner subunit can reach.
On to `C#Cc1c(F)ccc2cccc(-c3ncc4c(N5CC6CCC(C5)N6)nc(OC[C@@]56CCCN5[C@H](COC(=O)N5CCC(OCCc7cccc8c7n(C)c(=O)n8C7CCC(=O)NC7=O)CC5)CC6)nc4c3F)c12` (stereo partly drawn) [Compound 135, [(3S,8S)-8-[[4-(3,8-Diazabicyclo[3.2.1]octan-3-yl)-7-(8-ethynyl-7-fluoro-1-naphthyl)-8-fluoro-pyrido[4,3-d]pyrimidin-2-yl]oxymethyl]-1,2,3,5,6,7-hexahydropyrrolizin-3-yl]methyl 4-[2-[1-(2,6-dioxo-3-piperidyl)-3-methyl-2-oxo-benzimidazol-4-yl]ethoxy]piperidine-1-carboxylate], for which the DC50 was below 100 nM.
Take `C#Cc1c(F)ccc2cccc(-c3ncc4c(N5CC6CCC(C5)N6)nc(OC[C@@]56CCCN5[C@H](COC(=O)N5CCC(N7CCN(Cc8cccc9c8n(C)c(=O)n9C8CCC(=O)NC8=O)CC7)CC5)CC6)nc4c3F)c12` (stereo partly drawn) [Compound 53, [(3S,8S)-8-[[4-(3,8-diazabicyclo [3.2.1]octan-3-yl)-7-(8-ethynyl-7-fluoro-1-naphthyl)-8-fluoro-pyrido[4,3-d]pyrimidin-2-yl]oxymethyl]-1,2,3,5,6,7-hexahydropyrrolizin-3-yl]methyl4-[4-[[1-(2,6-dioxo-3-piperidyl)-3-methyl-2-oxo-benzimidazol-4-yl]methyl]piperazin-1-yl]piperidine-1-carboxylate]: the DC50 was below 100 nM.
For `C#Cc1c(F)ccc2cccc(-c3ncc4c(N5CC6CCC(C5)N6)nc(OC[C@@]56CCCN5[C@H](COC(=O)N5CCC(OCCC#Cc7ccc8c(c7)n(C)c(=O)n8C7CCC(=O)NC7=O)CC5)CC6)nc4c3F)c12` (stereo partly shown) [Compound 50], the DC50 was below 100 nM.
In the case of `C#Cc1c(F)ccc2cccc(-c3ncc4c(N5CC6CCC(C5)N6)nc(OC[C@@]56CCCN5[C@H](COC(=O)N5CC(CN7CCN(c8ccc9c(c8)n(C)c(=O)n9C8CCC(=O)NC8=O)CC7)C5)CC6)nc4c3F)c12` (stereo partly shown) [Compound 42], the DC50 was below 100 nM.
In the case of `C#Cc1c(F)ccc2cccc(-c3ncc4c(N5CC6CCC(C5)N6)nc(OC[C@@]56CCCN5[C@H](COC(=O)N5CCC(OCCCc7cccc8c7n(C)c(=O)n8C7CCC(=O)N(C)C7=O)CC5)CC6)nc4c3F)c12` (stereo partly drawn) [Compound 144, [(3S,8S)-8-[[4-(3,8-Diazabicyclo[3.2.1]octan-3-yl)-7-(8-ethynyl-7-fluoro-1-naphthyl)-8-fluoro-pyrido[4,3-d]pyrimidin-2-yl]oxymethyl]-1,2,3,5,6,7-hexahydropyrrolizin-3-yl]methyl 4-[3-[3-methyl-1-(1-methyl-2,6-dioxo-3-piperidyl)-2-oxo-benzimidazol-4-yl]propoxy]piperidine-1-carboxylate], the DC50 is at least 300 nM.
For `C#Cc1c(F)ccc2cccc(-c3ncc4c(N5CC6CCC(C5)N6)nc(OC[C@@]56CCCN5[C@H](COC(=O)N5CCC(OCc7cccc8c7n(C)c(=O)n8C7CCC(=O)NC7=O)CC5)CC6)nc4c3F)c12` (stereo partly drawn) [Compound 37, [(3S,8S)-8-[[4-(3,8-Diazabicyclo[3.2.1]octan-3-yl)-7-(8-ethynyl-7-fluoro-1-naphthyl)-8-fluoro-pyrido[4,3-d]pyrimidin-2-yl]oxymethyl]-1,2,3,5,6,7-hexahydropyrrolizin-3-yl]methyl4-[[1-(2,6-dioxo-3-piperidyl)-3-methyl-2-oxo-benzimidazol-4-yl]methoxy]piperidine-1-carboxylate] the value was 100 to 300 nM.
As for `C#Cc1c(F)ccc2cccc(-c3ncc4c(N5CC6CCC(C5)N6)nc(OC[C@@]56CCCN5[C@H](COC(=O)N5CCC(C7CCN(c8ccc9c(c8)n(C)c(=O)n9C8CCC(=O)NC8=O)CC7)CC5)CC6)nc4c3F)c12` (stereo partly shown) [Compound 70], the DC50 was at least 300 nM.
For `C#Cc1c(F)ccc2cccc(-c3ncc4c(N5CC6CCC(C5)N6)nc(OC[C@@]56CCCN5[C@H](COC(=O)N5CCC(CCn7cc(-c8ccc9c(c8)n(C)c(=O)n9C8CCC(=O)NC8=O)nn7)CC5)CC6)nc4c3F)c12` (stereo partly drawn) [Compound 95, [(3S,8S)-8-[[4-(3,8-Diazabicyclo[3.2.1]octan-3-yl)-7-(8-ethynyl-7-fluoro-1-naphthyl)-8-fluoro-pyrido[4,3-d]pyrimidin-2-yl]oxymethyl]-1,2,3,5,6,7-hexahydropyrrolizin-3-yl]methyl 4-[2-[4-[1-(2,6-dioxo-3-piperidyl)-3-methyl-2-oxo-benzimidazol-5-yl]triazol-1-yl]ethyl]piperidine-1-carboxylate], the DC50 is at least 300 nM.
For the compound `C#Cc1c(F)ccc2cccc(-c3ncc4c(N5CC6CCC(C5)N6)nc(OC[C@@]56CCCN5[C@H](COC(=O)N5CCC(N7CCC(Cc8cccc9c8n(C)c(=O)n9C8CCC(=O)NC8=O)CC7)CC5)CC6)nc4c3F)c12` (stereo partly drawn) [Compound 65, [(3S,8S)-8-[[4-(3,8-Diazabicyclo[3.2.1]octan-3-yl)-7-(8-ethynyl-7-fluoro-1-naphthyl)-8-fluoro-pyrido[4,3-d]pyrimidin-2-yl]oxymethyl]-1,2,3,5,6,7-hexahydropyrrolizin-3-yl]methyl 4-[4-[[1-(2,6-dioxo-3-piperidyl)-3-methyl-2-oxo-benzimidazol-4-yl]methyl]-1-piperidyl]piperidine-1-carboxylate], the DC50 lay in the range of 100 to 300 nM.
For `C#Cc1c(F)ccc2cccc(-c3ncc4c(N5CC6CCC(C5)N6)nc(OC[C@@]56CCCN5[C@H](COC(=O)N5CCC(CCCCc7ccc8c(c7)n(C)c(=O)n8C7CCC(=O)NC7=O)CC5)CC6)nc4c3F)c12` (stereo partly shown) [Compound 43] the value was at least 300 nM; for `C#Cc1c(F)ccc2cccc(-c3ncc4c(N5CC6CCC(C5)N6)nc(OC[C@@]56CCCN5[C@H](COC(=O)N5CCC(OCCCc7ccc8c(c7)n(C)c(=O)n8C7CCC(=O)NC7=O)CC5)CC6)nc4c3F)c12` (stereo partly drawn) [Compound 136, [(3S,8S)-8-[[4-(3,8-Diazabicyclo[3.2.1]octan-3-yl)-7-(8-ethynyl-7-fluoro-1-naphthyl)-8-fluoro-pyrido[4,3-d]pyrimidin-2-yl]oxymethyl]-1,2,3,5,6,7-hexahydropyrrolizin-3-yl]methyl 4-[3-[1-(2,6-dioxo-3-piperidyl)-3-methyl-2-oxo-benzimidazol-5-yl]propoxy]piperidine-1-carboxylate], below 100 nM.
On to `C#Cc1c(F)ccc2cccc(-c3ncc4c(N5CC6CCC(C5)N6)nc(OC[C@@]56CCCN5[C@H](COC(=O)N5CCC(COC7CN(Cc8cccc9c8n(C)c(=O)n9C8CCC(=O)NC8=O)C7)CC5)CC6)nc4c3F)c12` (stereo partly drawn) [Compound 63, [(3S,8S)-8-[[4-(3,8-diazabicyclo[3.2.1]octan-3-yl)-7-(8-ethynyl-7-fluoro-1-naphthyl)-8-fluoro-pyrido[4,3-d]pyrimidin-2-yl]oxymethyl]-1,2,3,5,6,7-hexahydropyrrolizin-3-yl]methyl4-[[1-[[1-(2,6-dioxo-3-piperidyl)-3-methyl-2-oxo-benzimidazol-4-yl]methyl]azetidin-3-yl]oxymethyl]piperidine-1-carboxylate], for which the DC50 is 100 to 300 nM.
To `C#Cc1c(F)ccc2cc(O)cc(-c3ncc4c(N5CC6CCC(C5)N6)nc(OC[C@@]56CCCN5[C@H](COC(=O)N5CCC(CN7CCC(c8ccc9c(c8)n(C)c(=O)n9C8CCC(=O)NC8=O)CC7)CC5)CC6)nc4c3F)c12` (stereo partly drawn) [Compound 82, [(3S,8S)-8-[[4-(3,8-Diazabicyclo[3.2.1]octan-3-yl)-7-(8-ethynyl-7-fluoro-3-hydroxy-1-naphthyl)-8-fluoro-pyrido[4,3-d]pyrimidin-2-yl]oxymethyl]-1,2,3,5,6,7-hexahydropyrrolizin-3-yl]methyl 4-[[4-[1-(2,6-dioxo-3-piperidyl)-3-methyl-2-oxo-benzimidazol-5-yl]-1-piperidyl]methyl] piperidine-1-carboxylate] belongs below 100 nM.
